What was measured:
[1] = tested on: human embryonic stem cell derived neural stem cells (NSCs); test: Neural stem cell proliferation assay (neurogenesis assay, ATP levels by CellTiterGlo); assay type: cell-based; conditions: 96 h, compound concentration at which 150% activity of control (100%) is reached, ATP levels after 4 days incubation, dose response 8 μM to 8 nM
Description: Neural Stem Cell Proliferation Assay
Neurogenic properties of small molecules are determined based on the proliferation of human embryonic stem cell derived neural stem cells (NSCs) which were derived via a dual smad inhibition as previously described (Chambers, S. M., et al., Highly efficient neural conversion of human ES and iPS cells by dual inhibition of SMAD signaling, Nature biotechnology, 2009. 27(3): p. 275-80.)
Compounds respond is measured by the increase in cells based on ATP levels (Promega:CellTiterGlo®) after an incubation period of 4 days.
NSCs are thawed and expanded over 3 passages. On the 14th day, NSCs are seeded in Polyornithin/Laminin coated 384 well plates at a cell density of 21′000 cells/cm^2 in a media volume of 38 μl.
4 hours after cell seeding, compound solutions are added at a volume of 2 μl. Stock solutions of the compounds (water, 5% DMSO) are diluted to obtain a dose response (11 points, dilution factor is 2), ranging from 8 μM to 8 nM. Controls are run to consistently determine the neurogenic properties of the cells: • Negative (neutral) control is cell culture Media (final DMSO concentration: 0.25%). Positive controls are: • 1. cell culture Media+100 ng/ml FGF2 (final DMSO concentration: 0.1%) • 2. cell culture Media+20 ng/ml EGF (final DMSO concentration: 0.1%) • 3. cell culture Media+100 ng/ml Wnt3a (final DMSO concentration: 0.1%)
After 4 days incubation at 37° C., 5% CO2, the amount of ATP per well is quantified. The ATP concentration is proportional to the cell number. ATP is quantified by using the Promega CellTiterGlo® kit. The CellTiterGlo® reagents contain a cell lysis buffer, a thermo stable luciferase (UltraGlo™ recombinant luciferase), magnesium and luciferin. Luciferin reacts with ATP producing oxyluciferin, AMP and light. The luminescence signal is proportional to the ATP content.
The value of negative (neutral) control is determined for each assay plate by taking the average of 16 negative control wells. The neurogenic compound response is calculated for each compound as (compound/Negative Control)* 100.
The values of EC150 from the dose response curve are determined for each test compound. The EC150 is the compound concentration at which 150% activity of control (100%) is reached.

Compound	melting point [°C]	EC (150% of control) [1] [µM]
Fc1ccc(-n2nccc2-c2ccc3noc(-c4ccc(C(F)(F)F)cc4)c3c2)c(F)c1 [Example 31, 5-[2-(2,4-Difluoro-phenyl)-2H-pyrazol-3-yl]-3-(4-trifluoromethyl-phenyl)-benzo[c]isoxazole]	159	0.96
Fc1ccc(-n2nccc2-c2ccc3noc(-c4ccc(Cl)cc4)c3c2)c(F)c1 [Example 32, 3-(4-Chloro-phenyl)-5-[2-(2,4-difluoro-phenyl)-2H-pyrazol-3-yl]-benzo[c]isoxazole]	155	0.073
COc1ccc(-c2onc3ccc(-c4ccnn4-c4ccc(F)cc4F)cc23)cc1 [Example 33, 5-[2-(2,4-Difluoro-phenyl)-2H-pyrazol-3-yl]-3-(4-methoxy-phenyl)-benzo[c]isoxazole]	165	0.068
c1ccc(-c2onc3ccc(-c4ccnn4-c4ccccc4)cc23)cc1 [Example 34, 3-Phenyl-5-(2-phenyl-2H-pyrazol-3-yl)-benzo[c]isoxazole]	163	0.13
Fc1ccc(-c2onc3ccc(-c4ccnn4-c4ccccn4)cc23)cc1 [Example 35, 3-(4-Fluoro-phenyl)-5-(2-pyridin-2-yl-2H-pyrazol-3-yl)-benzo[c]isoxazole]	175	0.04
COc1ccc(-c2onc3ccc(-c4ccnn4-c4ccccc4F)cc23)cc1F [Example 36, 3-(3-Fluoro-4-methoxy-phenyl)-5-[2-(2-fluoro-phenyl)-2H-pyrazol-3-yl]-benzo[c]isoxazole]	168	0.16
COc1ccc(-c2onc3ccc(-c4ccnn4-c4ccc(F)cc4)cc23)cc1F [Example 37, 3-(3-Fluoro-4-methoxy-phenyl)-5-[2-(4-fluoro-phenyl)-2H-pyrazol-3-yl]-benzo[c]isoxazole]	162	1.1
Cc1ccc(-n2nccc2-c2ccc3noc(-c4ccc(F)c(F)c4)c3c2)cc1 [Example 38, 3-(3,4-Difluoro-phenyl)-5-(2-p-tolyl-2H-pyrazol-3-yl)-benzo[c]isoxazole]	198	0.48
COc1ccc(-c2onc3ccc(-c4ccnn4-c4ccc(C)cc4)cc23)cc1F [Example 39, 3-(3-Fluoro-4-methoxy-phenyl)-5-(2-p-tolyl-2H-pyrazol-3-yl)-benzo[c]isoxazole]	197	0.25

Now from value to molecule, other results behind:

melting point [°C]	Compound	EC (150% of control) [1] [µM]
183	COc1ccc(-c2onc3ccc(-c4ccnn4-c4ccc(F)cc4F)cc23)cc1F [Example 40, 5-[2-(2,4-Difluoro-phenyl)-2H-pyrazol-3-yl]-3-(3-fluoro-4-methoxy-phenyl)-benzo[c]isoxazole]	0.23
161	Fc1ccc(-c2onc3ccc(-c4ccnn4-c4ccccc4Cl)cc23)cc1 [Example 41, 5-[2-(2-Chloro-phenyl)-2H-pyrazol-3-yl]-3-(4-fluoro-phenyl)-benzo[c]isoxazole]	0.22
172	Clc1ccc(-c2onc3ccc(-c4ccnn4-c4ccccc4Cl)cc23)cc1 [Example 42, 3-(4-Chloro-phenyl)-5-[2-(2-chloro-phenyl)-2H-pyrazol-3-yl]-benzo[c]isoxazole]	0.3
176	Cc1ccc(-c2onc3ccc(-c4ccnn4-c4ccccc4Cl)cc23)cc1 [Example 43, 5-[2-(2-Chloro-phenyl)-2H-pyrazol-3-yl]-3-p-tolyl-benzo[c]isoxazole]	0.15
154	Fc1ccc(-n2nccc2-c2ccc3noc(-c4cccs4)c3c2)cc1 [Example 44, 5-[2-(4-Fluoro-phenyl)-2H-pyrazol-3-yl]-3-thiophen-2-yl-benzo[c]isoxazole]	0.17
